Results: patent US20220289753A1, “SHP2 INHIBITORS” (IRBM S.P.A., priority 2019, published 2022)

target: T1, SHP-2 enzyme (Met1-Leu525) (Homo sapiens, UniProt Q06124); assay: SHP2 inhibition enzymatic assay (DiFMUP substrate, IRS1 peptide activation); type: biochemical; conditions: SHP2 wt; activated by 500 nM IRS1 peptide; 75 μM DiFMUP substrate
T1 construct: synthetized by Origene, Met1-Leu525, cat #TP750155; purchased Origene TP750155
T1 sequence (Q06124 1-525): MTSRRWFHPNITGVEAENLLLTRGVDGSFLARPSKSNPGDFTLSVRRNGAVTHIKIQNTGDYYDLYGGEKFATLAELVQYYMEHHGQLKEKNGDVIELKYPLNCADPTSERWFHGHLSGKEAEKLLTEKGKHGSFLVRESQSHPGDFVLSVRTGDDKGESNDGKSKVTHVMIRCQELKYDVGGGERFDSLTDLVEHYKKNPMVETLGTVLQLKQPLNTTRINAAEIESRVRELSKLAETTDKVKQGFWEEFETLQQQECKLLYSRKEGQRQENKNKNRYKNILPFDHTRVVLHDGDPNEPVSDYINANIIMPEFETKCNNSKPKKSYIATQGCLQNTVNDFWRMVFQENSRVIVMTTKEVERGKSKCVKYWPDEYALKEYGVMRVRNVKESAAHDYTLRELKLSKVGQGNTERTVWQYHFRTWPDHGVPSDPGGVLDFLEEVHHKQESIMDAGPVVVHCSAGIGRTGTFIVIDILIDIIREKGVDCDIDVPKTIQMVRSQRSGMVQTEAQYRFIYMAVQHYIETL
Procedure: SHP2 Inhibition Enzymatic Assay
Assay volume of 20 μL/well was assembled in 384 well black polystyrene low-binding microplates (Greiner), using the following buffer: 60 mM HEPES pH 7.2, 75 mM NaCl, 75 mM KCl, 1 mM EDTA pH 8, 0.05% tween-20, 5 mM DTT. The SHP-2 enzyme (synthetized by Origene, Met1-Leu525, cat #TP750155) was used at a final concentration of 0.5 nM.
Briefly, DMSO serially diluted testing compounds were transferred to the bottom of the assay plate. SHP2 was then added together with the IRS1 peptide. 30 minutes post incubation, the DiFMUP substrate was added to the reaction and incubated 30 min at room temperature. […] The fluorescence was detected by a microplate reader (Envision, PerkinElmer) according to the DiFMUP excitation and emission wavelength. The lower the fluorescence the higher the SHP2 inhibition.
The percentage inhibition is fitted against the compound dilutions with a four-parameter logistic regression. The inflection point (i.e. the concentration at which half-maximal inhibition is achieved) is the IC50.

SMILES | IC50 [µM]
CC1(N)CCN(c2nc3nc(Sc4ccc(OC(F)(F)F)cc4)cnc3[nH]2)CC1 [Example 27, 4-methyl-1-(5-((4-(trifluoromethoxy)phenyl)thio)-1H-imidazo[4,5-b]pyrazin-2-yl)piperidin-4-amine] | > 3
CNC1CCN(c2nc3nc(Sc4cccnc4C(F)(F)F)cnc3[nH]2)CC1 [Example 16, N-methyl-1-(5-((2-(trifluoromethyl)pyridin-3-yl)thio)-1H-imidazo[4,5-b]pyrazin-2-yl)piperidin-4-amine] | 0.5 to 3
CC1(N)CCN(c2nc3nc(Sc4cccnc4C(F)(F)F)cnc3n2CC2CC2)CC1 [Example 13, 1-(1-(cyclopropylmethyl)-5-((2-(trifluoromethyl)pyridin-3-yl)thio)-1H-imidazo[4,5-b]pyrazin-2-yl)-4-methylpiperidin-4-amine] | 0.5 to 3
CN1CCOc2ccc(Sc3cnc4[nH]c(N5CCC(C)(N)CC5)nc4n3)cc21 [Example 67, 4-methyl-1-(5-((4-methyl-3,4-dihydro-2H-benzo[b][1,4]oxazin-6-yl)thio)-1H-imidazo[4,5-b]pyrazin-2-yl)piperidin-4-amine] | > 3
CS(=O)(=O)NC1CCN(c2nc3nc(Sc4cccnc4C(F)(F)F)cnc3[nH]2)CC1 [Example 40, N-(1-(5-((2-(trifluoromethyl)pyridin-3-yl)thio)-1H-imidazo[4,5-b]pyrazin-2-yl)piperidin-4-yl)methanesulfonamide] | > 3
CC1(N)CCN(c2nc3nc(Sc4ccc(-c5nnc(-c6ccccc6)o5)cc4)cnc3[nH]2)CC1 [Example 59, 4-methyl-1-(5-((4-(5-phenyl-1,3,4-oxadiazol-2-yl)phenyl)thio)-1H-imidazo[4,5-b]pyrazin-2-yl)piperidin-4-amine] | 0.5 to 3
NC1CCN(c2nc3nc(Sc4cccnc4C(F)(F)F)cnc3[nH]2)CC1 [Example 7, 1-(5-((2-(trifluoromethyl)pyridin-3-yl)thio)-1H-imidazo[4,5-b]pyrazin-2-yl)piperidin-4-amine] | 0.5 to 3

Other lines, results leading:

IC50 [µM] | SMILES
< 0.5 | Nc1nccc(Sc2cnc3[nH]c(N4CCC5(CC4)Oc4ccccc4[C@H]5N)nc3n2)c1Cl [Example 159, (R)-1′-(5-((2-amino-3-chloropyridin-4-yl)thio)-1H-imidazo[4,5-b]pyrazin-2-yl)-3H-spiro[benzofuran-2,4′-piperidin]-3-amine]
< 0.5 | N[C@@H]1c2ccccc2CC12CCN(c1nc3nc(Sc4ccnc5ccsc45)cnc3[nH]1)CC2 [Example 212, (S)-1′-(5-(thieno[3,2-b]pyridin-7-ylthio)-1H-imidazo[4,5-b]pyrazin-2-yl)-1,3-dihydrospiro[indene-2,4′-piperidin]-1-amine]
0.5 to 3 | CC1(N)CCN(c2nc3nc(Sc4nc5ccccc5c(=O)[nH]4)cnc3[nH]2)CC1 [Example 91, 2-((2-(4-amino-4-methylpiperidin-1-yl)-1H-imidazo[4,5-b]pyrazin-5-yl)thio)quinazolin-4(3H)-one]
0.5 to 3 | CC1(N)CCN(c2nc3nc(Sc4cccc5[nH]cnc45)cnc3[nH]2)CC1 [Example 116]
< 0.5 | CC1(N)CCN(c2nc3nc(Sc4ccc(C(=O)O)cc4)cnc3[nH]2)CC1 [Example 95, 4-((2-(4-amino-4-methylpiperidin-1-yl)-1H-imidazo[4,5-b]pyrazin-5-yl)thio)benzoic acid]
> 3 | OCCN1CCC(CNc2nc3nc(Sc4cccnc4C(F)(F)F)cnc3[nH]2)CC1 [Example 82, 2-(4-(((5-((2-(trifluoromethyl)pyridin-3-yl)thio)-1H-imidazo[4,5-b]pyrazin-2-yl)amino)methyl)piperidin-1-yl)ethan-1-ol]
0.5 to 3 | CC1(N)CCN(c2nc3ncc(-c4cccc(Cl)c4Cl)nc3[nH]2)CC1 [Example 131, 1-[5-(2,3-Dichlorophenyl)-1H-imidazo[4,5-b]pyrazin-2-yl]-4-methylpiperidin-4-amine]
0.5 to 3 | OCCN1CCCN(c2nc3nc(Sc4cccnc4C(F)(F)F)cnc3[nH]2)CC1 [Example 79, 2-(4-(5-((2-(trifluoromethyl)pyridin-3-yl)thio)-1H-imidazo[4,5-b]pyrazin-2-yl)-1,4-diazepan-1-yl)ethan-1-ol]
